Experimental data from PubChem BioAssay (NCI).
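Method: 48-hour compound exposure of cells in 96-well plates, five concentrations, linear interpolation of endpoints. TGI: concentration producing complete growth inhibition.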

Tests used:
Experiment in all cases: NCI anticancer screen, dose series, 48 h
SNB-19 CNS = system: SNB-19 CNS
UACC-62 melanoma = system: UACC-62 melanoma
ACHN renal = system: ACHN renal
SK-OV-3 ovarian = system: SK-OV-3 ovarian
SR leukemia = system: SR leukemia
M14 melanoma = system: M14 melanoma
CAKI-1 renal = system: CAKI-1 renal
K-562 leukemia = system: K-562 leukemia
UO-31 renal = system: UO-31 renal
SF-268 CNS = system: SF-268 CNS
RPMI-8226 leukemia = system: RPMI-8226 leukemia
SN12C renal = system: SN12C renal
OVCAR-5 ovarian = system: OVCAR-5 ovarian
SK-MEL-28 melanoma = system: SK-MEL-28 melanoma
OVCAR-4 ovarian = system: OVCAR-4 ovarian
MCF7 breast = system: MCF7 breast
OVCAR-8 ovarian = system: OVCAR-8 ovarian
786-0 renal = system: 786-0 renal
MDA-MB-435 = system: MDA-MB-435
HCT-15 colon = system: HCT-15 colon
DU-145 prostate = system: DU-145 prostate
RXF 393 renal = system: RXF 393 renal
NCI-H522 lung = system: NCI-H522 lung
SK-MEL-2 melanoma = system: SK-MEL-2 melanoma
HT29 colon = system: HT29 colon
MOLT-4 leukemia = system: MOLT-4 leukemia
SW-620 colon = system: SW-620 colon
MALME-3M melanoma = system: MALME-3M melanoma
OVCAR-3 ovarian = system: OVCAR-3 ovarian
MDA-MB-231 breast = system: MDA-MB-231 breast
MDA-N = system: MDA-N
SF-295 CNS = system: SF-295 CNS
A549 NSCLC = system: A549 NSCLC
HOP-92 NSCLC = system: HOP-92 NSCLC
COLO 205 colon = system: COLO 205 colon
SF-539 CNS = system: SF-539 CNS
NCI-H460 lung = system: NCI-H460 lung
HOP-62 NSCLC = system: HOP-62 NSCLC
TK-10 renal = system: TK-10 renal
U251 CNS = system: U251 CNS
A498 renal = system: A498 renal
PC-3 prostate = system: PC-3 prostate
NCI-H23 lung = system: NCI-H23 lung
KM12 colon = system: KM12 colon
NCI/ADR-RES ovarian = system: NCI/ADR-RES ovarian
HCC-2998 colon = system: HCC-2998 colon
T-47D breast = system: T-47D breast
SK-MEL-5 melanoma = system: SK-MEL-5 melanoma
HCT-116 colon = system: HCT-116 colon
NCI-H226 lung = system: NCI-H226 lung
LOX IMVI melanoma = system: LOX IMVI melanoma
HS 578T breast = system: HS 578T breast
UACC-257 melanoma = system: UACC-257 melanoma
CCRF-CEM leukemia = system: CCRF-CEM leukemia
HL-60(TB) leukemia = system: HL-60(TB) leukemia
SNB-75 CNS = system: SNB-75 CNS

Measured: TGI

NCCCNOCCCN
> 100 µM: SNB-19 CNS | UACC-62 melanoma | ACHN renal | SK-OV-3 ovarian | SR leukemia | M14 melanoma | CAKI-1 renal | K-562 leukemia | UO-31 renal | SF-268 CNS | RPMI-8226 leukemia | SN12C renal | OVCAR-5 ovarian | SK-MEL-28 melanoma | OVCAR-4 ovarian | MCF7 breast | OVCAR-8 ovarian | 786-0 renal | MDA-MB-435 | HCT-15 colon | DU-145 prostate | RXF 393 renal | NCI-H522 lung | SK-MEL-2 melanoma | HT29 colon | MOLT-4 leukemia | SW-620 colon | MALME-3M melanoma | OVCAR-3 ovarian | MDA-MB-231 breast | MDA-N | SF-295 CNS | A549 NSCLC | HOP-92 NSCLC | COLO 205 colon | SF-539 CNS | NCI-H460 lung | HOP-62 NSCLC | TK-10 renal | U251 CNS | A498 renal | PC-3 prostate | NCI-H23 lung | KM12 colon | NCI/ADR-RES ovarian | HCC-2998 colon | T-47D breast | SK-MEL-5 melanoma | HCT-116 colon

CCOC(=O)C(=CNC(=S)N=Nc1c(O)[nH]c2ccccc12)C(=O)OCC
> 100 µM: SNB-19 CNS | UACC-62 melanoma | ACHN renal | SK-OV-3 ovarian | SR leukemia | M14 melanoma | CAKI-1 renal | K-562 leukemia | NCI-H226 lung | UO-31 renal | SF-268 CNS | RPMI-8226 leukemia | SN12C renal | OVCAR-5 ovarian | SK-MEL-28 melanoma | OVCAR-4 ovarian | MCF7 breast | OVCAR-8 ovarian | 786-0 renal | MDA-MB-435 | LOX IMVI melanoma | DU-145 prostate | RXF 393 renal | SK-MEL-2 melanoma | HT29 colon | MOLT-4 leukemia | SW-620 colon | HS 578T breast | OVCAR-3 ovarian | MDA-MB-231 breast | MDA-N | SF-295 CNS | A549 NSCLC | UACC-257 melanoma | CCRF-CEM leukemia | HOP-92 NSCLC | HL-60(TB) leukemia | COLO 205 colon | SF-539 CNS | NCI-H460 lung | HOP-62 NSCLC | TK-10 renal | U251 CNS | A498 renal | PC-3 prostate | NCI-H23 lung | SNB-75 CNS | KM12 colon | NCI/ADR-RES ovarian | HCC-2998 colon | T-47D breast | SK-MEL-5 melanoma | HCT-116 colon
